Experimental data from patent US10806711B2 (priority 2011, dated 2020).
Entries after “also recorded” stand apart in the source; their conditions may differ.

How the values were obtained:
[1] = tested on: isolated ventricular myocytes; experiment: Myocyte Ca2+ transient and cytosolic Ca2+ measurement; format: cell-based, mouse
Experimental: Isolation of ventricular myocytes—Hearts from WT mice (12-week old) were perfused on the Langendorff system with a modified Krebs-Henseleit buffer (KHB) composed of (mM) NaCl 118, KCl 5.4, HEPES 10, NaH2PO4 0.33, MgCl2 2, glucose 10, taurine 30, butanedione monoxime 10 (pH=7.4). Then an enzyme solution (KHB containing 0.7 mg/ml type II collagenase, 0.1% BSA and 25 μM CaCl2) was used to digest the hearts for 10 min. Finally, ventricles of the hearts were excised, minced and filtered to obtain isolated cells. After sufficient sedimentation, the supernatant was removed and the cells were resuspended.
Myocyte Ca^2+ transient and cytosolic Ca^2+ measurement—Myocytes were loaded with Fluo-4 acetoxymethyl ester (7 μM) for 20 min at room temperature, followed by a 10 min wash with Tyrode's solution, and then placed onto a plexiglass chamber for recording. For Ca^2+ transient measurements, myocytes were excited under 0.5 Hz and 3 Hz field stimulation, and the fluorescence signals were obtained using a Nikon TE 2000 microscope and collected through an InCyt Standard photometry system. For cytosolic Ca^2+ analysis in quiescent myocytes, a Zeiss LSM 510 confocal microscope was used to record fluorescent images from resting myocytes. Line-scan mode was applied at 3.07 ms intervals with 512 pixels spaced at 0.056 μm. Drugs were dissolved in Tyrode's solution and perfused into the chamber. Images of myocytes were recorded every 30 s after drug application. Data analysis was performed using Clampfit 9.2 and Image J 1.44 software.
Water soluble probenecid was used for all of the myocyte experiments.

HL-1 cells = format: cell-based
Experimental: Cell Viability Assays—Cell viability was assessed using the ApoTox-Glo Triplex Assay (Promega, Madison, Wis.) per manufacturer's instructions. Briefly, HL-1 cells were seeded in 96 well plates at a density of 1×10^4 cells/well and allowed to grow overnight in Claycomb media supplemented with 10% FBS, 100 U/ml penicillin/streptomycin, and 2 mM L-glutamine. […] GF-AFC viability was then added to ApoTox-Glo Assay Buffer at a ratio of 10 μl GF-AFC to 2.0 ml Assay Buffer and 20 μl of this mixture was added to each well and cells were incubated at 37° C. for 30 minutes. Fluorescence was measured at 400 nm (ex)/505 nm (em) and the data was normalized to untreated control cells.

C57 WT mice = experiment: Echocardiographic evaluation of contractility (EF) after bolus IV probenecid; format: in vivo, mouse; settings: for peak change in EF: WT mice
Experimental: Echocardiographic evaluation. In order to obtain a dose response curve, male C57 WT (n=39) mice 12-16 weeks of age were anesthetized with isoflurane while intravenous jugular access (IV) was obtained under a microscope as previously described. Subsequently, an echocardiographic study with both M-mode and B-mode was obtained in parasternal long axis (PSLAX) as described below. […] Echocardiography—All echocardiographic studies were performed with a Vevo 2100 Ultrasound system (Visualsonics, Toronto Calif.) with an MS400 probe (30 MHz centerline frequency) and were post-processed at a separate workstation with Vevostrain software (Vevo 2100, v1.1.1 B1455, Visualsonic, Toronto, Canada). Images were obtained from PSLAX and short axis (SAX) views at depths between 2 and 10 mm in both M-mode and B-mode. All studies on mice exposed to I/R injury included M-mode, B-mode in PSLAX and strain imaging in SAX. While for the contractility studies, only M-mode measurements were obtained from the PSLAX. Strain imaging was performed from the B-mode images and regional radial strain and circumferential displacement were measured by regional wall and summed average from the SAX images. From the M-mode images, left ventricular cavity size and wall thickness was measured and the ejection fraction (EF) and fractional shortening (FS) calculations were obtained using the Vevo software. The change in the EF, FS, as well as strain derived parameters was obtained by subtracting the baseline value from each individual subject against subsequent time-points. In addition, the average change from baseline for each time point between 5 and 30 minutes was determined for each mouse, with measurements being taken every 5 minutes. These averages were compared between the different groups.

mice subjected to I/R = experiment: Probenecid bolus followed by Ischemia/Reperfusion (infarct size, echocardiography); format: in vivo, mouse; settings: IV pretreatment
Experimental: Ischemia/Reperfusion methods—Mice were anesthetized with sodium pentobarbital and the heart exposed through a left thoracotomy at the level of the fourth intercostal space. The mice were intubated and placed on a mini-ventilator (Harvard apparatus, Holliston, Mass.). A loop occluder was placed around the left anterior descending artery (LAD), and tightened, occluding it for either 30 minutes or 45 minutes. After surgery, the thorocotomy was sutured in layers, and the animal was allowed to recover. […] At twenty-four hours post-I/R, echocardiography was performed and the hearts subsequently removed for determination of infarct size and normalized to the risk region.

TRPV2 = settings: HEK293 cells, identified 2007; cited from earlier work
mice after I/R injury = experiment: Ischemia/Reperfusion followed by oral probenecid (echocardiography); format: in vivo, mouse
Experimental: Ischemia/Reperfusion methods—Mice were anesthetized with sodium pentobarbital and the heart exposed through a left thoracotomy at the level of the fourth intercostal space. The mice were intubated and placed on a mini-ventilator (Harvard apparatus, Holliston, Mass.). A loop occluder was placed around the left anterior descending artery (LAD), and tightened, occluding it for either 30 minutes or 45 minutes. After surgery, the thorocotomy was sutured in layers, and the animal was allowed to recover. Echocardiography methods—All echocardiographic studies were performed as previously described for Example 1.

healthy pig model = experiment: Cardiac function by echocardiography in healthy porcine model; format: in vivo
[2] = tested on: Langendorff perfused hearts of WT mice; experiment: Ex vivo (Langendorff) perfused isolated heart; set-up: species or system mouse; settings: 10^−6 M perfusion
Experimental: Ex vivo (Langendorff) studies—Isolated heart experiments were performed as previously described on WT mice. […] Measurements were taken every second.

With `CCCN(CCC)S(=O)(=O)c1ccc(C(=O)O)cc1` [probenecid] the “decay rate (Tau) of Ca2+ transient” value ([1]; 0.1 μM) was “not affected”, the “time to peak of cytosolic Ca2+ after treatment” value ([1]; 0.1 μM) was “approximately 5 min” and the “Ca2+ spark frequency” value ([1]; 0.1 μM for 5 minutes, from 1.45±0.09) was 2.99±0.24. For the same molecule, the “increase of cytosolic Ca2+ compared to control at steady state” value ([1]; 0.1 μM, quiescent myocytes) was 2.5±0.2 fold, the “Ca2+ transient amplitude (ΔF/F0)” value ([1]; 0.1 μM, from 3.35±0.20, P<0.001) was 4.25±0.25 and the “cytotoxicity / cell death” value (HL-1 cells; increasing doses, 4, 8 or 24 hours following treatment) was “does not result in any detectable cytotoxicity; also recorded: no significant cell death”. The “cell death in HL-1 cells (Example 3 summary)” value (HL-1 cells; probenecid at supraphysiological, isoproterenol at clinically relevant concentrations) was “no cell death”, the “peak change in EF” value (C57 WT mice; 75 mg/kg bolus IV) was 5.26±3.35 and the “peak change in EF” value (C57 WT mice; 100 mg/kg bolus IV) was 8.40±2.80. The “time EF remained at an elevated state” value (C57 WT mice; 200 mg/kg IV, n=5) was “at least 1 hour”, the “average increase in EF over baseline” value (C57 WT mice; 200 mg/kg IV, n=5, evaluated for a longer period (at least 1 hour)) was 8.9±2.57 and the “echocardiographic changes (FIG. 1B)” value (C57 WT mice; FIG. 1B legend) was “did not result in any echocardiographic changes”. The “time after bolus injection at which increased contractility was noted” value (C57 WT mice; all doses at or above 75 mg/kg IV) was ≤ 5 min, the “estimated EC50 of dose dependent increase in contractility (EF)” value (C57 WT mice; bolus IV, measured at 5 minute intervals for 30 minutes total) was 49.33 mg/kg and the “systolic function (EF and global circumferential strain), pretreated vs saline” value (mice subjected to I/R; 30 and 45 minute ischemia) was “not significantly different; also recorded: no difference”. For the same molecule, the “infarct size, pretreated vs saline control” value (mice subjected to I/R; 30 and 45 minute ischemia, 24 hours of reperfusion) was “not significantly different; also recorded: no difference”, the “radial displacement of the anterior wall” value (mice subjected to I/R; 30 minutes ischemia, saline 0.43±0.02) was 0.46±0.06 mm and the “radial displacement of the anterior wall” value (mice subjected to I/R; 45 minutes ischemia, saline 0.36±0.03) was 0.35±0.06 mm. For the same molecule, the “radial displacement, pretreated vs control” value (mice subjected to I/R; either time point) was “no difference between the treatment groups”, the “cytosolic Ca2+ in TRPV2-expressing cells” value (TRPV2) was “significant increase” and the radial displacement (mice after I/R injury; oral in water after 45 min I/R, water 0.018±0.018, p<0.05) was 0.071±0.013. For the same molecule, the “LV cavity size (LV Vol;d) increase” value (mice after I/R injury; oral in water after 45 min I/R, water 22.55±4.47, p=0.076) was 7.59±6.08, the “change in EF” value (mice after I/R injury; oral in water after I/R (FIG. 11D legend)) was “slight (but not statistically significant) increase in the change in EF” and the “cardiac function (EF) by echocardiography” value (healthy pig model; bolus of 5 mg/kg IV, 5 mg/kg) was “rapid increase in EF”. For the same molecule, the “cardiac function by echocardiography” value (healthy pig model; continuous drip 5 mg/kg/hr (first 60 minutes) and 10 mg/kg/hr (second thirty minutes)) was “improves function; also recorded: improvement in cardiac function”, the “change in average +dP/dt over time” value ([2]; paced 400 bpm) was “statistically significant from 90 to 210 seconds; also recorded: significantly different from baseline” and the “relaxation (−dP/dt)” value ([2]; increased from 1812±158, P<0.01) was 2309±133.
